Measured values as given in ChEMBL document CHEMBL6071200, “Discovery of Ring-Annulated Analogues of Cannabidiol as Potential Anticancer Agents: Synthesis and Biological Evaluation” (ACS Med Chem Lett, 2024).
Active and inactive are the calls of the source. No cut-off for these calls is given here.

Assays:
HCT-116 [1] = assay: Cytotoxicity against human HCT-116 cells assessed as inhibition of cell growth at 20 uM incubated for 48 hrs by SRB assay relative to control; type: functional
MCF7 [2] = assay: Cytotoxicity against human MCF7 cells assessed as inhibition of cell growth at 20 uM incubated for 48 hrs by SRB assay relative to control; type: functional
HCT-116 [3] = assay: Cytotoxicity against human HCT-116 cells assessed as inhibition of cell growth incubated for 48 hrs by SRB assay; type: functional, cell-based; conditions: HCT-116, 48 h
MCF7 [4] = assay: Cytotoxicity against human MCF7 cells assessed as inhibition of cell growth incubated for 48 hrs by SRB assay; type: functional, cell-based; conditions: MCF7, 48 h
[5] = Cytotoxicity against human HEK293 cells assessed as inhibition of cell growth incubated for 48 hrs by SRB assay; type: toxicity, cell-based
[6] = Selectivity index, ratio of IC50 for HEK293 cells to IC50 for human HCT-116 cells; type: toxicity; conditions: HEK293 cells versus HCT-116 cells, read-out: Ratio IC50
[7] = Selectivity index, ratio of IC50 for HEK293 cells to IC50 for human MCF7 cells; type: toxicity; conditions: HEK293 cells versus MCF7 cells, read-out: Ratio IC50
MCF7 [8] = assay: Induction of apoptosis in human MCF7 cells assessed as viable cells at 14.65 uM incubated for 24 hrs by Annexin V-FITC/PI staining based flow cytometric analysis (reference value: 88.20 %); type: functional; conditions: read-out: Activity
MCF7 [9] = assay: Induction of apoptosis in human MCF7 cells assessed as early apoptotic cells at 14.65 uM incubated for 24 hrs by Annexin V-FITC/PI staining based flow cytometric analysis (reference value: 2.93 %); type: functional
MCF7 [10] = assay: Induction of apoptosis in human MCF7 cells assessed as late apoptotic cells at 14.65 uM incubated for 24 hrs by Annexin V-FITC/PI staining based flow cytometric analysis (reference value: 4.85 %); type: functional
MCF7 [11] = assay: Induction of apoptosis in human MCF7 cells assessed as necrotic cells at 14.65 uM incubated for 24 hrs by Annexin V-FITC/PI staining based flow cytometric analysis (reference value: 4.02 %); type: functional
MCF7 [12] = assay: Inhibition of colony formation in human MCF7 cells assessed as reduction in number of colonies at subtoxic doses measured after 48 hrs by crystal violet staining based analysis; type: functional, cell-based
MCF7 [13] = assay: Induction of ROS production in human MCF7 cells assessed as DCFDA intensity at 14.6 uM incubated for 24 hrs by flow cytometric analysis (reference value: 0.95 %); type: functional
MCF7 [14] = assay: Induction of mitochondrial membrane loss in human MCF7 cells assessed as fold change at 14.6 uM incubated for 24 hrs by Mitotracker dye based flow cytometric analysis relative to control; type: functional
MCF7 [15] = assay: Cell cycle arrest in human MCF7 cells assessed as accumulation of cells at G1 phase at 14.65 uM incubated for 24 hrs by PI staining based flow cytometric analysis (reference value: 63.9 %); type: functional
MCF7 [16] = assay: Cell cycle arrest in human MCF7 cells assessed as accumulation of cells at S phase at 14.65 uM incubated for 24 hrs by PI staining based flow cytometric analysis (reference value: 22.93 %); type: functional
MCF7 [17] = assay: Cell cycle arrest in human MCF7 cells assessed as accumulation of cells at G2/M phase at 14.65 uM incubated for 24 hrs by PI staining based flow cytometric analysis (reference value: 13.7 %); type: functional
MCF7 [18] = assay: Anticancer activity against human MCF7 cells assessed as reduction in cell viability at 14.65 uM incubated for 48 hrs by SRB assay relative to control; type: functional
MCF7 [19] = assay: Anticancer activity against human MCF7 cells assessed as reduction in cell viability at 14.65 uM preincubated with LY320135 for 1 hrs followed by compound addition and measured after 48 hrs by SRB assay; type: functional, cell-based
MCF7 [20] = assay: Anticancer activity against human MCF7 cells assessed as reduction in cell viability at 14.65 uM preincubated with SR144528 for 1 hrs followed by compound addition and measured after 48 hrs by SRB assay; type: functional, cell-based
MCF7 [21] = assay: Anticancer activity against human MCF7 cells assessed as reduction in cell viability at 14.65 uM preincubated with ML-193 for 1 hrs followed by compound addition and measured after 48 hrs by SRB assay; type: functional, cell-based
MCF7 [22] = assay: Anticancer activity against human MCF7 cells assessed as reduction in cell viability at 14.65 uM preincubated with capsazepine for 1 hrs followed by compound addition and measured after 48 hrs by SRB assay; type: functional, cell-based
MCF7 [23] = assay: Anticancer activity against human MCF7 cells assessed as reduction in cell viability at 14.65 uM preincubated with GW9662 for 1 hrs followed by compound addition and measured after 48 hrs by SRB assay; type: functional, cell-based
[24] = Metabolic stability in human liver microsomes assessed as parent compound remaining measured after 30 mins; type: ADME, Microsome; conditions: read-out: Stability
CYP450 = CYP450 (Homo sapiens, UniProt P04798+P05177+P05181+P08684+P10632+P10635+P11509+P11712+P13584+P20813+P20815+P20853+P24462+P24903+P33260+P33261+P51589+P78329+P98187+Q02928+Q08477+Q16678+Q16696+Q5TCH4+Q6VVX0+Q7Z449+Q8TAV3+Q96SQ9+Q9HB55); assay: Inhibition of CYP450 in human liver microsomes at <1 uM by cocktail-mixture based assay relative to control; type: ADME, Microsome; design: dose or concentration left out as unconfirmed; conditions: probe cocktail mixture
[25] = Anticancer activity against KiMol cells (unknown origin); type: functional, cell-based; conditions: KiMol cell
AGS = assay: Anticancer activity against human AGS cells; type: functional, cell-based
A549 = assay: Anticancer activity against human A549 cells; type: functional, cell-based
NCI-H460 = assay: Anticancer activity against human NCI-H460 cells; type: functional, cell-based
EL4 = assay: Anticancer activity against mouse EL4 cells; type: functional, cell-based
[26] = Anticancer activity against mouse Thymocyte; type: toxicity, cell-based; conditions: thymocytes
C6 = assay: Anticancer activity against rat C6 cells; type: functional, cell-based
SF-126 = assay: Anticancer activity against human SF-126 cells; type: functional, cell-based
T98 = assay: Anticancer activity against human T98 cells; type: functional, cell-based
[27] = Anticancer activity against human MZC cells; type: functional, cell-based
[28] = Anticancer activity against mouse GL261 cells; type: functional, cell-based
MCF7 [29] = assay: Anticancer activity against human MCF7 cells; type: functional, cell-based
MDA-MB-231 = assay: Anticancer activity against human MDA-MB-231 cells; type: functional, cell-based
T47D = assay: Anticancer activity against human T47D cells; type: functional, cell-based
RBL-2H3 = assay: Anticancer activity against rat RBL-2H3 cells; type: functional, cell-based
CCRF-CEM = assay: Anticancer activity against human CEM cells; type: functional, cell-based
HL-60 = assay: Anticancer activity against human HL-60 cells; type: functional, cell-based
DU-145 = assay: Anticancer activity against human DU-145 cells; type: functional, cell-based
LNCaP = assay: Anticancer activity against human LNCaP cells; type: functional, cell-based
SW480 = assay: Anticancer activity against human SW480 cells; type: functional, cell-based
Caco-2 = assay: Anticancer activity against human Caco-2 cells; type: functional, cell-based

C=C(C)[C@@H]1CCC(C)=C[C@H]1c1c(O)cc(CCCCC)cc1O [CANNABIDIOL]
inhibition at 20 µM (HCT-116 [1]): 77.3% | inhibition at 20 µM (MCF7 [2]): 59.1% | IC50 (HCT-116 [3]): 9.8 µM | IC50 (MCF7 [4]): 14.6 µM | IC50 at 48 h [5]: 95.2 µM | selectivity ratio [6]: 9.7 | selectivity ratio [7]: 6.5 | viability at 14.65 µM (MCF7 [8]): 81.1% | Activity (MCF7 [9]): 6.33% | Activity (MCF7 [10]): 10.14% | Activity (MCF7 [11]): 2.38% | inhibition (MCF7 [12]): Active | Activity (MCF7 [13]): 15.11% | fold change (FC) (MCF7 [14]): 3.4 | Activity (MCF7 [15]): 75.12% | Activity (MCF7 [16]): 6.84% | Activity (MCF7 [17]): 18.04% | Activity (MCF7 [18]): 52.46% | Activity (MCF7 [19]): Active | Activity (MCF7 [20]): Active | Activity (MCF7 [21]): Active | Activity (MCF7 [22]): Active | Activity (MCF7 [23]): Active | remaining at 0.5 h [24]: 17% | inhibition (CYP450): > 50% | IC50 [25]: 6 µM | IC50 (AGS): 7.5 µM | IC50 (A549): 2800 nM | IC50 (NCI-H460): 2800 nM | IC50 (EL4): 7.01 µM | IC50 [26]: 7.01 µM | IC50 (C6): 1200 nM | IC50 (SF-126): 1200 nM | IC50 (T98): 1200 nM | IC50 [27]: 1200 nM | IC50 [28]: 1200 nM | IC50 (MCF7 [29]): 1300 nM | IC50 (MDA-MB-231): 1300 nM | IC50 (T47D): 1300 nM | IC50 (RBL-2H3): 6.3 µM | IC50 (CCRF-CEM): 6.3 µM | IC50 (HL-60): 6.3 µM | IC50 (DU-145): 5.06 µM | IC50 (LNCaP): 5.06 µM | IC50 (SW480): 5.95 µM | IC50 (Caco-2): 5.95 µM
